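How tested: cells in 96-well plates exposed to compound for 48 hours at five concentrations. Here, GI50 denotes the concentration required for 50% inhibition of growth.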 Calls of active or inactive are those of the source. No stated cut-off is given here; in the data, active = GI50 up to about 1.1 µM and inactive = higher.
How the values were obtained:
Experiment in all cases: NCI-60 cell line screen, 48 h
786-0 = system: 786-0
A498 = system: A498
A549 = system: A549
ACHN = system: ACHN
CAKI-1 = system: CAKI-1
CCRF-CEM = system: CCRF-CEM
COLO 205 = system: COLO 205
DLD-1 = system: DLD-1
DMS-114 = system: DMS-114
DMS-273 = system: DMS-273
EKVX = system: EKVX
HCC 2998 = system: HCC 2998
HCT-116 = system: HCT-116
HL-60 = system: HL-60
HOP-18 = system: HOP-18
HOP-62 = system: HOP-62
HOP-92 = system: HOP-92
HT-29 = system: HT-29
IGROV-1 = system: IGROV-1
K562 = system: K562
KM-20L2 = system: KM-20L2
KM12 = system: KM12
LOX IMVI = system: LOX IMVI
LXFL 529 = system: LXFL 529
M14 = system: M14
M19-MEL = system: M19-MEL
MOLT-4 = system: MOLT-4
Malme-3M = system: Malme-3M
NCI-H226 = system: NCI-H226
NCI-H23 = system: NCI-H23
NCI-H460 = system: NCI-H460
NCI-H522 = system: NCI-H522
OVCAR-3 = system: OVCAR-3
OVCAR-4 = system: OVCAR-4
OVCAR-5 = system: OVCAR-5
OVCAR-8 = system: OVCAR-8
RPMI-8226 = system: RPMI-8226
RXF 393 = system: RXF 393
SF-268 = system: SF-268
SF-295 = system: SF-295
SF-539 = system: SF-539
SK-MEL-28 = system: SK-MEL-28
SK-MEL-2 = system: SK-MEL-2
SK-MEL-5 = system: SK-MEL-5
SK-OV-3 = system: SK-OV-3
SN12C = system: SN12C
SNB-19 = system: SNB-19
SNB-75 = system: SNB-75
SNB-78 = system: SNB-78
SW-620 = system: SW-620
TK-10 = system: TK-10
U-251 = system: U-251
UACC-257 = system: UACC-257
UACC-62 = system: UACC-62
UO-31 = system: UO-31
XF498 = system: XF498
BT-549 = system: BT-549
DU-145 = system: DU-145
Hs-578T = system: Hs-578T
MCF7 = system: MCF7
MDA-MB-231 = system: MDA-MB-231
MDA-MB-435 = system: MDA-MB-435
MDA-N = system: MDA-N
NCI/ADR-RES = system: NCI/ADR-RES
PC-3 = system: PC-3
SR = system: SR
T47D = system: T47D

`COC(c1ccccc1)C(c1ccccc1)N1CCOCC1` (stereo unspecified) was tested, and the GI50 (786-0) was > 100000 nM (inactive), the GI50 (A498) was > 100000 nM (inactive) and the GI50 (A549) was > 100000 nM (inactive). For the same compound, the GI50 (ACHN) was > 100000 nM (inactive), the GI50 (CAKI-1) was > 100000 nM (inactive) and the GI50 (CCRF-CEM) was > 100000 nM (inactive). The GI50 (COLO 205) was > 100000 nM (inactive), the GI50 (DLD-1) was > 100000 nM (inactive) and the GI50 (DMS-114) was > 100000 nM (inactive). The GI50 (DMS-273) was > 100000 nM (inactive), the GI50 (EKVX) was > 100000 nM (inactive) and the GI50 (HCC 2998) was > 100000 nM (inactive). The GI50 (HCT-116) was > 100000 nM (inactive), the GI50 (HL-60) was 89500 nM (inactive) and the GI50 (HOP-18) was > 100000 nM (inactive). For the same compound, the GI50 (HOP-62) was > 100000 nM (inactive), the GI50 (HOP-92) was > 100000 nM (inactive) and the GI50 (HT-29) was > 100000 nM (inactive). The GI50 (IGROV-1) was > 100000 nM (inactive), the GI50 (K562) was > 100000 nM (inactive) and the GI50 (KM-20L2) was > 100000 nM (inactive). The GI50 (KM12) was > 100000 nM (inactive), the GI50 (LOX IMVI) was > 100000 nM (inactive) and the GI50 (LXFL 529) was > 100000 nM (inactive). The GI50 (M14) was > 100000 nM (inactive), the GI50 (M19-MEL) was > 100000 nM (inactive) and the GI50 (MOLT-4) was > 100000 nM (inactive). For the same compound, the GI50 (Malme-3M) was > 100000 nM (inactive), the GI50 (NCI-H226) was > 100000 nM (inactive) and the GI50 (NCI-H23) was > 100000 nM (inactive). The GI50 (NCI-H460) was > 100000 nM (inactive), the GI50 (NCI-H522) was > 100000 nM (inactive) and the GI50 (OVCAR-3) was > 100000 nM (inactive). For the same compound, the GI50 (OVCAR-4) was > 100000 nM (inactive), the GI50 (OVCAR-5) was > 100000 nM (inactive) and the GI50 (OVCAR-8) was > 100000 nM (inactive). For the same compound, the GI50 (RPMI-8226) was 49700 nM (inactive), the GI50 (RXF 393) was > 100000 nM (inactive) and the GI50 (SF-268) was > 100000 nM (inactive). For the same compound, the GI50 (SF-295) was > 100000 nM (inactive), the GI50 (SF-539) was > 100000 nM (inactive) and the GI50 (SK-MEL-28) was > 100000 nM (inactive). For the same compound, the GI50 (SK-MEL-2) was > 100000 nM (inactive), the GI50 (SK-MEL-5) was > 100000 nM (inactive) and the GI50 (SK-OV-3) was > 100000 nM (inactive). For the same compound, the GI50 (SN12C) was > 100000 nM (inactive), the GI50 (SNB-19) was > 100000 nM (inactive) and the GI50 (SNB-75) was > 100000 nM (inactive). The GI50 (SNB-78) was > 100000 nM (inactive), the GI50 (SW-620) was > 100000 nM (inactive) and the GI50 (TK-10) was > 100000 nM (inactive). For the same compound, the GI50 (U-251) was > 100000 nM (inactive), the GI50 (UACC-257) was > 100000 nM (inactive) and the GI50 (UACC-62) was > 100000 nM (inactive). The GI50 (UO-31) was > 100000 nM (inactive) and the GI50 (XF498) was 53000 nM (inactive).
With `CN(C)CCCCCNc1c2ccccc2nc2cccc([N+](=O)[O-])c12` the GI50 (786-0) was 1.33 nM (active), the GI50 (A498) was 2.58 nM (active) and the GI50 (A549) was 0.685 nM (active). The GI50 (ACHN) was 0.766 nM (active), the GI50 (BT-549) was 0.946 nM (active) and the GI50 (CAKI-1) was 2.29 nM (active). For the same compound, the GI50 (CCRF-CEM) was 24 nM (active), the GI50 (COLO 205) was 0.524 nM (active) and the GI50 (DLD-1) was 3.42 nM (active). The GI50 (DMS-114) was 2.42 nM (active), the GI50 (DMS-273) was 1.97 nM (active) and the GI50 (DU-145) was 0.404 nM (active). The GI50 (EKVX) was 4.02 nM (active), the GI50 (HCC 2998) was 3.31 nM (active) and the GI50 (HCT-116) was 0.74 nM (active). The GI50 (HL-60) was 1.43 nM (active), the GI50 (HOP-18) was 27 nM (active) and the GI50 (HOP-62) was 1.49 nM (active). The GI50 (HOP-92) was 3.29 nM (active), the GI50 (HT-29) was 1.1 nM (active) and the GI50 (Hs-578T) was 1.97 nM (active). The GI50 (IGROV-1) was 2.2 nM (active), the GI50 (K562) was 0.986 nM (active) and the GI50 (KM-20L2) was 3.6 nM (active). The GI50 (KM12) was 9.57 nM (active), the GI50 (LOX IMVI) was 2.89 nM (active) and the GI50 (LXFL 529) was 11.5 nM (active). The GI50 (M14) was 1.46 nM (active), the GI50 (M19-MEL) was 5.12 nM (active) and the GI50 (MCF7) was 5.83 nM (active). For the same compound, the GI50 (MDA-MB-231) was 0.32 nM (active), the GI50 (MDA-MB-435) was 0.2 nM (active) and the GI50 (MDA-N) was 0.187 nM (active). For the same compound, the GI50 (MOLT-4) was 0.807 nM (active), the GI50 (Malme-3M) was 1.85 nM (active) and the GI50 (NCI-H226) was 21.4 nM (active). The GI50 (NCI-H23) was 0.785 nM (active), the GI50 (NCI-H460) was 0.223 nM (active) and the GI50 (NCI/ADR-RES) was 1.19 nM (active). The GI50 (OVCAR-3) was 1.46 nM (active), the GI50 (OVCAR-4) was 0.653 nM (active) and the GI50 (OVCAR-5) was 1.82 nM (active). For the same compound, the GI50 (OVCAR-8) was 1.77 nM (active), the GI50 (PC-3) was 0.313 nM (active) and the GI50 (RPMI-8226) was 0.42 nM (active). For the same compound, the GI50 (RXF 393) was 3.7 nM (active), the GI50 (SF-268) was 1.18 nM (active) and the GI50 (SF-295) was 1.05 nM (active). The GI50 (SF-539) was 3.6 nM (active), the GI50 (SK-MEL-28) was 4.81 nM (active) and the GI50 (SK-MEL-2) was 1.07 nM (active). For the same compound, the GI50 (SK-MEL-5) was 1.54 nM (active), the GI50 (SK-OV-3) was 6.07 nM (active) and the GI50 (SN12C) was 1.86 nM (active). For the same compound, the GI50 (SNB-19) was 4.13 nM (active), the GI50 (SNB-75) was 1.63 nM (active) and the GI50 (SNB-78) was 5.65 nM (active). For the same compound, the GI50 (SR) was 0.447 nM (active), the GI50 (SW-620) was 0.877 nM (active) and the GI50 (T47D) was 9.73 nM (active). The GI50 (TK-10) was 3.37 nM (active), the GI50 (U-251) was 1.1 nM (active) and the GI50 (UACC-257) was 9.18 nM (active). The GI50 (UACC-62) was 1.83 nM (active) and the GI50 (XF498) was 2.77 nM (active).
